Consider 1 compound from ChEMBL document CHEMBL5042519, “Design and synthesis of marine sesterterpene analogues as novel estrogen receptor α degraders for breast cancer treatment” (Eur J Med Chem, 2022).

The subject of series [1] is MCF7. Briefly: Induction of ROS generation in human MCF7 cells assessed as increase in intracellular ROS level at 2 uM measured after 24 hrs by DCFH-DA staining based flow cytometry method (reference value: 19.02%). The class given is functional.
The target of series [2] is T1, Estrogen receptor (Homo sapiens) (UniProt P03372).
T1 sequence (whole entry): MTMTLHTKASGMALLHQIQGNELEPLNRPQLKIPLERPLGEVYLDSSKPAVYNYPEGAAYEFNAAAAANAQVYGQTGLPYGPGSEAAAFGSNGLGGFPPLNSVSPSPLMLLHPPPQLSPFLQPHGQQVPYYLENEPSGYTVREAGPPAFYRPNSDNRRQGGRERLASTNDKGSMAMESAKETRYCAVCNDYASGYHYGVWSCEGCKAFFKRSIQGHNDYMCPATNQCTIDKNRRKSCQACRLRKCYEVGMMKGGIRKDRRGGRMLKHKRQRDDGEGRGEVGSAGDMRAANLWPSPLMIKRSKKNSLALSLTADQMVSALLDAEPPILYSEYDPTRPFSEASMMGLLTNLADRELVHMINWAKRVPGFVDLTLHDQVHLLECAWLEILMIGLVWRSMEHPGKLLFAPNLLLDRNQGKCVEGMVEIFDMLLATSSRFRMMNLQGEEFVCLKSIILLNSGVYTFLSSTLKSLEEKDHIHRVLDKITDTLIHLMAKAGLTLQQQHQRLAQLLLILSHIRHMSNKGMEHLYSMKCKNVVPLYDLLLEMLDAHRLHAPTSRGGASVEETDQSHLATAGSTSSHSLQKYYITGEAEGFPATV
Briefly: Induction of ERalpha degradation in human MCF7 cells assessed as ERalpha level at 3 uM measured after 24 hrs in presence of chloroquine by Western blot analysis. The class given is cell-based. A general note: In western blotting, separated proteins are transferred to a membrane and probed.

Series [3] has as its system MCF7. Nature of the series: Cell cycle arrest in human MCF7 cells assessed as decrease in G2/M phase accumulation at 0.5 to 2 uM and measured after 24 hrs by propidium iodide staining based flow cytometry relative to control. In kind it is functional. The following applies: dose 0.5-2 µM. A general note: Flow cytometry measures light scatter and fluorescence of single cells or particles in a stream.

The test system of series [4] is MCF7. Briefly: Effect on cell morphology in human MCF7 cells assessed as appearance of apoptotic bodies at 0.5 to 2 uM measured after 24 hrs by Hoechst 33342 staining based fluorescence microscopy. The following applies: dose 0.5-2 µM. In kind it is functional.
The target in series [5] is T2, Progesterone receptor (Homo sapiens) (UniProt P06401).
T2 sequence (whole entry): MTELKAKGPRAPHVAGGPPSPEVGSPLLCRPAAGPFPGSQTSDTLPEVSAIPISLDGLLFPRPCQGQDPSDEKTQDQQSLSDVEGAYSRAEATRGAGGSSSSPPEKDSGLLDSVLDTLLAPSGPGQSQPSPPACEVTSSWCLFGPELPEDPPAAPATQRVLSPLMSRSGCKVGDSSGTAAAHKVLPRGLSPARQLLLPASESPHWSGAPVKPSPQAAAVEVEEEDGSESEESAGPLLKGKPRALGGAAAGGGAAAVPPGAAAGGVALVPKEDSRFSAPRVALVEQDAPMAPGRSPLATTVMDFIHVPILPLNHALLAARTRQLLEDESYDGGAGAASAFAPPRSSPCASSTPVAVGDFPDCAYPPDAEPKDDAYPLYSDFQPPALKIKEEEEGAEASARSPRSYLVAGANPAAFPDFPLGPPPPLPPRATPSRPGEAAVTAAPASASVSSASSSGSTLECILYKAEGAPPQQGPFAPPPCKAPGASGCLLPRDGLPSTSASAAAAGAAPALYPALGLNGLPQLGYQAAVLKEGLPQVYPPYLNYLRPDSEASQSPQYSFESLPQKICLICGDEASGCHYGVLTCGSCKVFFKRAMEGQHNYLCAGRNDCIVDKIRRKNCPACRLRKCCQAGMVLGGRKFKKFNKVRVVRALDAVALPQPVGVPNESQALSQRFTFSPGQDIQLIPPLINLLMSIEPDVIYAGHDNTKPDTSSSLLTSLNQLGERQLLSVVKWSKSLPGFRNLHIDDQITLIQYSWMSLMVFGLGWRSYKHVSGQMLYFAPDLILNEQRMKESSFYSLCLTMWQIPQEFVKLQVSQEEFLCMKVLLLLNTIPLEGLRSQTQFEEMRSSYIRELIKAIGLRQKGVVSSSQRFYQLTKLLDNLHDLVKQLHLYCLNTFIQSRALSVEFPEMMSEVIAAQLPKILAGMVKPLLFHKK
Briefly: Induction of progesterone receptor degradation in human MCF7 cells assessed as decrease in PR level at 1 uM incubated for 24 hrs by Western blot analysis. The class given is cell-based.

A short description of series [6]: Resistance index, ratio of IC50 for antiproliferative activity against human MCF7/ADR cells to IC50 for antiproliferative activity against human MCF7 cells. In kind it is functional.
Series [7] is described as follows: Metabolic stability in rat plasma assessed as parent compound remaining incubated for 60 mins in presence of NADPH by UPLC-MS analysis. The note with it: read-out: Stability. The class given is ADME, cell-free.
Series [8] deals with MCF7. Nature of the series: Effect on cell morphology in human MCF7 cells assessed as chromatin shrinkage at 0.5 to 2 uM measured after 24 hrs by Hoechst 33342 staining based fluorescence microscopy. In kind it is functional. The note with it: dose 0.5-2 µM.
Series [9] is described as follows: Selectivity index, ratio of IC50 for antiproliferative activity against human MCF-10A cells to IC50 for antiproliferative activity against human MDA-MB-231 cells by MTT assay. In kind it is toxicity, cell-based. The note with it: MCF-10A cells versus MDA-MB-231 cells, read-out: Ratio IC50. Background: Formazan colour is commonly taken as a measure of viable cells.

Active and inactive are the calls of the source. No cut-off for these calls is given here.

Turning to `CC1=CC(=O)[C@H]2/C(C=O)=C\C[C@H]3[C@@H]([C@@H](C)/C=C\C=C/C(=O)OCCOCCOCCOC(=O)CC45CC6CC(CC(C6)C4)C5)CC[C@]3(C)C[C@H]12`, in the series on MCF7 [1], the Activity is 58.14%. For the same compound, the outcome (in series [2]; in the series on MCF7 [3]; in the series on MCF7 [4]; in the series on MCF7 [8]) was Active. Besides, in series [5], the result was inactive. Moreover, in [6], the “Ratio IC50” value is on record as 1.17. For the same compound, the remaining at 1 h in series [7] was 81%. In addition, in [9], the selectivity ratio was found to be 5.34.
